Measurements reported in EP3046573B1, “AMYLIN ANALOGUES” (Zealand Pharma A/S, priority 2013, dated 2015).
Numbered stars: 1 amine (or outer) side, 2 acyl side, 3 side chain; on linkers, the order of the positions; unused ones are H or OH. Bridge positions count the residues as written; N and C are the ends. Square brackets hold non-standard residues; d marks the D form. Peptide text beside a SMILES is read from it. * marks the point of attachment. C20 diacid = O=C(O)CCCCCCCCCCCCCCCCCCC(=O)*; γGlu = O=C(O)[C@H](CCC(=O)[*:2])N[*:1]; Hyp = O=C(O)[C@@H]1C[C@@H](O)CN1; NMeI = CC[C@H](C)[C@H](NC)C(=O)O; Sar = CNCC(=O)O

Test: Pharmacokinetic (PK) profiling in rats
Type: in vivo
Conditions: male, Sprague Dawley, rat, plasma, single sc bolus, 100 nmol/kg (18, NN96), 20 nmol/kg (72, 76), 30 nmol/kg (73, 82, 118, 162, 166, 172); for CL/F: apparent clearance; for half-life: terminal elimination half-life, read-out: t½ (converted)
Protocol: Sprague Dawley male rats were given a single subcutaneous (sc) bolus of each peptide to be tested at doses as specified below..
Study A: Following the administration of a 100 nmol/kg dose of a test peptide of the invention (Compound 18) and a comparison pramlintide analogue NN96 (see Example 5, above), respectively, blood samples were drawn from the tail vein at 0.5, 3, 8, 15, 36, 60 and 81 hours post-dosing. 4 rats were used (2 rats per compound). The rats were euthanized immediately after the last blood sampling by overdose of O2/CO2.
Study B: 20 nmol/kg doses of Compound 72 and Compound 76, respectively, of the invention were administered. Blood samples were drawn by sublingual bleeding prior to dosing and at 2, 6, 12, 24, 48, 72 and 96 hours after dosing. 4 rats were used (2 rats per compound). The rats were euthanized immediately after the last blood sampling by overdose of O2/CO2.
Study C: 30 nmol/kg doses of Compound 73, Compound 82 and Compound 118, respectively, of the invention were administered. Blood samples were drawn from the tail vein prior to dosing and at 24, 48, 72 and 96 hours after dosing. Blood samples were taken from two rats at each time point, and only 2 blood samples were drawn from each rat, i.e. 8 rats were used for each compound. The rats were euthanized immediately after the last blood sampling by concussion and cervical dislocation.
Study D: 30 nmol/kg doses of Compound 162, Compound 166 and Compound 172 were administered. Blood samples were drawn from the tail vein prior to dosing and at 24, 48, 72, 96 and 168 hours after dosing. Blood samples were taken from two rats at each time point, and only 2 blood samples were drawn from each rat, i.e. 10 rats were used for each compound. The rats were euthanized immediately after the last blood sampling by concussion and cervical dislocation.
The dosing vehicle used for each test peptide was a mannitol-containing histidine buffer (pH 7.0). Plasma samples were analyzed after precipitation with ethanol by liquid chromatography mass spectrometry (LC-MS/MS). Mean plasma concentrations were used for calculation of the pharmacokinetic parameters using the non-compartmental approach in Phoenix WinNonlin 6.3.
Plasma terminal elimination half-life (t½) was determined as In(2)/λz, where λz is the magnitude of the slope of the log linear regression of the log concentration versus time profile during the terminal phase. Apparent clearance (CL/F) was determined as dose/AUCinf (sc), where AUCinf is the area under the plasma concentration vs. time curve extrapolated to infinity (AUCinf = AUClast + Clast/λz, where Clast is the last observed plasma concentration).

| CL/F [mL/h/kg] | half-life [h] | Compound |
| --- | --- | --- |
| 3.06 | 55.4 | CC[C@H](C)[C@@H](C(=O)N[C@@H](CC(C)C)C(=O)N[C@@H](CO)C(=O)N[C@@H](CO)C(=O)N[C@H](C(=O)N[C@@H](CC(=O)O)C(=O)N[C@H](C(=O)NCC(=O)N[C@@H](CO)C(=O)N[C@@H](CC(=O)O)C(=O)N[C@H](C(=O)N1CCC[C@H]1C(N)=O)[C@@H](C)O)C(C)C)[C@@H](C)O)N(C)C(=O)[C@H](C)NC(=O)CN(C)C(=O)[C@H](Cc1ccccc1)NC(=O)[C@H](CO)NC(=O)[C@H](CO)NC(=O)[C@H](CO)NC(=O)[C@H](CO)NC(=O)[C@H](CCCNC(=N)N)NC(=O)[C@H](Cc1c[nH]cn1)NC(=O)[C@H](CC(C)C)NC(=O)[C@H](Cc1ccccc1)NC(=O)[C@H](CCC(=O)O)NC(=O)[C@H](C)NC(=O)[C@H](CC(C)C)NC(=O)[C@H](CCCNC(=N)N)NC(=O)[C@H](CCC(N)=O)NC(=O)[C@@H](NC(=O)[C@H](C)NC(=O)[C@@H]1CSSC[C@H](NC(=O)[C@H](CCCNC(=N)N)NC(=O)CC[C@H](NC(=O)CCCCCCCCCCCCCCCCCCC(=O)O)C(=O)O)C(=O)N[C@@H](CC(N)=O)C(=O)N[C@@H]([C@@H](C)O)C(=O)N[C@@H](C)C(=O)N[C@@H]([C@@H](C)O)C(=O)N1)[C@@H](C)O [Compound 73, [19CD]-isoGlu-RC()NTATC()ATQRLAEFLHRSSSSF-Gly(Me)-A-Ile(Me)-LSSTDVGSDTP-NH2] ({C20 diacid-γGlu}-RCNTATCATQRLAEFLHRSSSSF[Sar]A[NMeI]LSSTDVGSDTP-NH2; disulfide 2-7) |
| 3.53 | 37.3 | CC[C@H](C)[C@@H](C(=O)N[C@@H](CC(C)C)C(=O)N[C@@H](CO)C(=O)N[C@@H](CO)C(=O)N[C@H](C(=O)N[C@@H](CCC(=O)O)C(=O)N[C@H](C(=O)NCC(=O)N[C@@H](CO)C(=O)N[C@@H](CCC(=O)O)C(=O)N[C@H](C(=O)N1CCC[C@H]1C(N)=O)[C@@H](C)O)C(C)C)[C@@H](C)O)N(C)C(=O)[C@H](C)NC(=O)CN(C)C(=O)[C@H](Cc1ccccc1)NC(=O)[C@H](CO)NC(=O)[C@H](CO)NC(=O)[C@H](CO)NC(=O)[C@H](CO)NC(=O)[C@H](CCCNC(=N)N)NC(=O)[C@H](Cc1c[nH]cn1)NC(=O)[C@H](CC(C)C)NC(=O)[C@H](Cc1ccccc1)NC(=O)[C@H](CCC(=O)O)NC(=O)[C@H](C)NC(=O)[C@H](CC(C)C)NC(=O)[C@H](CCCNC(=N)N)NC(=O)[C@H](CCC(N)=O)NC(=O)[C@@H](NC(=O)[C@H](C)NC(=O)[C@@H]1CSSC[C@H](NC(=O)[C@H](CCCNC(=N)N)NC(=O)CC[C@H](NC(=O)CCCCCCCCCCCCCCCCCCC(=O)O)C(=O)O)C(=O)N[C@@H](CC(N)=O)C(=O)N[C@@H]([C@@H](C)O)C(=O)N[C@@H](C)C(=O)N[C@@H]([C@@H](C)O)C(=O)N1)[C@@H](C)O [Compound 76, [19CD]-isoGlu-RC()NTATC()ATQRLAEFLHRSSSSF-Gly(Me)-A-Ile(Me)-LSSTEVGSETP-NH2] ({C20 diacid-γGlu}-RCNTATCATQRLAEFLHRSSSSF[Sar]A[NMeI]LSSTEVGSETP-NH2; disulfide 2-7) |
| 4.01 | 44.2 | CC[C@H](C)[C@@H](C(=O)N[C@@H](CC(C)C)C(=O)N[C@@H](CO)C(=O)N[C@@H](CO)C(=O)N[C@H](C(=O)N[C@@H](CCC(=O)O)C(=O)N[C@H](C(=O)NCC(=O)N[C@@H](CO)C(=O)N[C@@H](CCC(=O)O)C(=O)N[C@H](C(=O)N1CCC[C@H]1C(N)=O)[C@@H](C)O)C(C)C)[C@@H](C)O)N(C)C(=O)[C@H](C)NC(=O)CN(C)C(=O)[C@H](Cc1ccccc1)NC(=O)[C@H](CO)NC(=O)[C@H](CO)NC(=O)[C@H](CCCNC(=N)N)NC(=O)[C@H](Cc1c[nH]cn1)NC(=O)[C@H](CC(C)C)NC(=O)[C@H](Cc1ccccc1)NC(=O)[C@H](CCC(=O)O)NC(=O)[C@H](C)NC(=O)[C@H](CC(C)C)NC(=O)[C@H](CCCNC(=N)N)NC(=O)[C@H](CCC(N)=O)NC(=O)[C@@H](NC(=O)[C@H](C)NC(=O)[C@@H]1CSSC[C@H](NC(=O)[C@H](CCCNC(=N)N)NC(=O)CC[C@H](NC(=O)CCCCCCCCCCCCCCCCCCC(=O)O)C(=O)O)C(=O)N[C@@H](CC(N)=O)C(=O)N[C@@H]([C@@H](C)O)C(=O)N[C@@H](C)C(=O)N[C@@H]([C@@H](C)O)C(=O)N1)[C@@H](C)O [Compound 82, [19CD]-isoGlu-RC()NTATC()ATQRLAEFLHRSSF-Gly(Me)-A-Ile(Me)-LSSTEVGSETP-NH2] ({C20 diacid-γGlu}-RCNTATCATQRLAEFLHRSSF[Sar]A[NMeI]LSSTEVGSETP-NH2; disulfide 2-7) |
| 3.51 | 56.4 | CC[C@H](C)[C@@H](C(=O)N[C@@H](CC(C)C)C(=O)N[C@@H](CO)C(=O)N[C@@H](CO)C(=O)N[C@H](C(=O)N[C@@H](CCC(=O)O)C(=O)N[C@H](C(=O)NCC(=O)N[C@@H](CO)C(=O)N[C@@H](CCC(=O)O)C(=O)N[C@H](C(=O)N1CCC[C@H]1C(N)=O)[C@@H](C)O)C(C)C)[C@@H](C)O)N(C)C(=O)[C@H](C)NC(=O)CN(C)C(=O)[C@H](Cc1ccccc1)NC(=O)[C@H](CO)NC(=O)[C@H](CO)NC(=O)[C@H](CO)NC(=O)[C@H](CO)NC(=O)[C@H](CCCNC(=N)N)NC(=O)[C@H](Cc1c[nH]cn1)NC(=O)[C@H](CC(C)C)NC(=O)[C@H](Cc1ccccc1)NC(=O)[C@H](CCC(=O)O)NC(=O)[C@H](C)NC(=O)[C@H](CC(C)C)NC(=O)[C@H](CCCNC(=N)N)NC(=O)[C@H](C)NC(=O)[C@@H](NC(=O)[C@H](C)NC(=O)[C@@H]1CSSC[C@H](NC(=O)[C@H](CCCNC(=N)N)NC(=O)CC[C@H](NC(=O)CCCCCCCCCCCCCCCCCCC(=O)O)C(=O)O)C(=O)N[C@@H](CC(N)=O)C(=O)N[C@@H]([C@@H](C)O)C(=O)N[C@@H](C)C(=O)N[C@@H]([C@@H](C)O)C(=O)N1)[C@@H](C)O [Compound 118, [19CD]-isoGlu-RC()NTATC()ATARLAEFLHRSSSSF-Gly(Me)-A-Ile(Me)-LSSTEVGSETP-NH2] ({C20 diacid-γGlu}-RCNTATCATARLAEFLHRSSSSF[Sar]A[NMeI]LSSTEVGSETP-NH2; disulfide 2-7) |
| 5.92 | 29.8 | CC[C@H](C)[C@@H](C(=O)N[C@@H](CC(C)C)C(=O)N[C@@H](CO)C(=O)N[C@@H](CO)C(=O)N[C@H](C(=O)N[C@@H](CCC(=O)O)C(=O)N[C@H](C(=O)NCC(=O)N[C@@H](CO)C(=O)N[C@@H](CCC(=O)O)C(=O)N[C@H](C(=O)N1CCC[C@H]1C(N)=O)[C@@H](C)O)C(C)C)[C@@H](C)O)N(C)C(=O)[C@H](C)NC(=O)CN(C)C(=O)[C@H](Cc1ccccc1)NC(=O)[C@H](CO)NC(=O)[C@H](CO)NC(=O)[C@H](CCCNC(=N)N)NC(=O)[C@H](Cc1c[nH]cn1)NC(=O)[C@H](CC(C)C)NC(=O)[C@H](Cc1ccccc1)NC(=O)[C@H](CCC(=O)O)NC(=O)[C@H](C)NC(=O)[C@H](CC(C)C)NC(=O)[C@H](CCCNC(=N)N)NC(=O)[C@H](CCC(=O)O)NC(=O)[C@@H](NC(=O)[C@H](C)NC(=O)[C@@H]1CSSC[C@H](NC(=O)[C@H](CCCNC(=N)N)NC(=O)CC[C@H](NC(=O)CCCCCCCCCCCCCCCCCCC(=O)O)C(=O)O)C(=O)NCC(=O)N[C@@H]([C@@H](C)O)C(=O)N[C@@H](C)C(=O)N[C@@H]([C@@H](C)O)C(=O)N1)[C@@H](C)O [Compound 162, [19CD]-isoGlu-RC()GTATC()ATERLAEFLHRSSF-Gly(Me)-A-Ile(Me)-LSSTEVGSETP-NH2] ({C20 diacid-γGlu}-RCGTATCATERLAEFLHRSSF[Sar]A[NMeI]LSSTEVGSETP-NH2; disulfide 2-7) |
| 3.79 | 27.9 | CC[C@H](C)[C@@H](C(=O)N[C@@H](CC(C)C)C(=O)N[C@@H](CO)C(=O)N[C@@H](CO)C(=O)N[C@H](C(=O)N[C@@H](CCC(=O)O)C(=O)N[C@H](C(=O)NCC(=O)N[C@@H](CO)C(=O)N[C@@H](CCC(=O)O)C(=O)N[C@H](C(=O)N1C[C@H](O)C[C@H]1C(N)=O)[C@@H](C)O)C(C)C)[C@@H](C)O)N(C)C(=O)[C@H](C)NC(=O)CN(C)C(=O)[C@H](Cc1ccccc1)NC(=O)[C@H](CO)NC(=O)[C@H](CO)NC(=O)[C@H](CCCNC(=N)N)NC(=O)[C@H](Cc1c[nH]cn1)NC(=O)[C@H](CC(C)C)NC(=O)[C@H](Cc1ccccc1)NC(=O)[C@H](CCC(=O)O)NC(=O)[C@H](C)NC(=O)[C@H](CC(C)C)NC(=O)[C@H](CCCNC(=N)N)NC(=O)[C@H](CCC(=O)O)NC(=O)[C@@H](NC(=O)[C@H](C)NC(=O)[C@@H]1CSSC[C@H](NC(=O)[C@H](CCCNC(=N)N)NC(=O)CC[C@H](NC(=O)CCCCCCCCCCCCCCCCCCC(=O)O)C(=O)O)C(=O)NCC(=O)N[C@@H]([C@@H](C)O)C(=O)N[C@@H](C)C(=O)N[C@@H]([C@@H](C)O)C(=O)N1)[C@@H](C)O [Compound 166, [19CD]-isoGlu-RC()GTATC()ATERLAEFLHRSSF-Gly(Me)-A-Ile(Me)-LSSTEVGSET-Hyp-NH2] ({C20 diacid-γGlu}-RCGTATCATERLAEFLHRSSF[Sar]A[NMeI]LSSTEVGSET[Hyp]-NH2; disulfide 2-7) |
